From US8501446B2 (Vertex Pharmaceuticals Incorporated, priority 2004, dated 2013)
Where two headings read alike, the source gives them in different places.

Columns and labels:
Assay type in all cases: biochemical
[1] = biological target: Aurora-B (Homo sapiens, UniProt Q96GD4); assay: Aurora-B inhibition assay, radioactive assay; conditions: average Ki if more than one value determined
Outline: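 Radiometric [γ-33P]ATP kinase assay run as described for JAK3/ROCK but with Aurora-B protein; 33P incorporation into substrate measured by filter capture and scintillation counting after TCA quench. Background-subtracted data fit to give Ki(app).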

[2] = biological target: JAK2 (Homo sapiens, UniProt O60674); assay: JAK2 inhibition assay (radioactive enzyme assay, as for JAK3); conditions: average Ki if more than one value determined
JAK2, sequence (O60674 whole entry, species assumed): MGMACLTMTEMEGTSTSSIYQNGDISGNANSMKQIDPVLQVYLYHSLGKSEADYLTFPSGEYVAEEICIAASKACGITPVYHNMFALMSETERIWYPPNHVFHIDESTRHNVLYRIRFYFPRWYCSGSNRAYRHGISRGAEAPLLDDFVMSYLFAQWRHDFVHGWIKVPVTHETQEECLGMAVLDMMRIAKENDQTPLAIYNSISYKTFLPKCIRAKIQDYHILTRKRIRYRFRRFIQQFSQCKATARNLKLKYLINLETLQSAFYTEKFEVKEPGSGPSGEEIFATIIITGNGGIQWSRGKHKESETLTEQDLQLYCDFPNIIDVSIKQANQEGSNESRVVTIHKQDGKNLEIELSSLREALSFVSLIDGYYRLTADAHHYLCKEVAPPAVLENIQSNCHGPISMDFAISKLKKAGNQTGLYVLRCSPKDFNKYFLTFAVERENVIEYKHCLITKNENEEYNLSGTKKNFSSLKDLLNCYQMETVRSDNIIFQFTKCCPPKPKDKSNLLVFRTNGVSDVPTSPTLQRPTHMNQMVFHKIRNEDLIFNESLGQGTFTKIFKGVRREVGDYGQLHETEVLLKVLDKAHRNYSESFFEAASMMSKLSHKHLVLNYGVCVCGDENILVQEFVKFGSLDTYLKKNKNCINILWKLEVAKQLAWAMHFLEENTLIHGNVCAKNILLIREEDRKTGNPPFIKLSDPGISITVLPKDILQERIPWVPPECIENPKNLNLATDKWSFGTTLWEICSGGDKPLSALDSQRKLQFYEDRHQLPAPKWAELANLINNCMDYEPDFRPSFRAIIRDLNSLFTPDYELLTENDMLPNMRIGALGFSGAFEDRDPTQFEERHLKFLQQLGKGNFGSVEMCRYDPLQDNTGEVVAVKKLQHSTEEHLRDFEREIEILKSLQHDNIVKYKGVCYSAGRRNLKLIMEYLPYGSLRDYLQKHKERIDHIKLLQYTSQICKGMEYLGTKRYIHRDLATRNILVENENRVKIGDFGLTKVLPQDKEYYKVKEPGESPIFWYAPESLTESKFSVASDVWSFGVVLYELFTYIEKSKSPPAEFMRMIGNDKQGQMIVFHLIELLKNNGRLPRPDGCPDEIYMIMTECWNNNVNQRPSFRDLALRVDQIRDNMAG
Outline: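 Both kinases: poly(Glu)4Tyr substrate in 100 mM HEPES pH 7.4, 10 mM MgCl2, 1 mM DTT. Run 20 min at 25° C, TCA stop, filter-bound ³³P counted, Ki(app) fitted after background subtraction. JAK3: final [γ-³³P]ATP 5 μM, enzyme added as 2 nM solution. JAK2: final poly(Glu)4Tyr 15 μM, final ATP 12 μM.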

[3] = biological target: T1, ROCK I (AA 6-553) (Homo sapiens, UniProt Q13464); assay: ROCK inhibition assay, standard coupled enzyme system ("Enzyme"); conditions: enzyme-linked assay
T1 construct: ROCK I (AA 6-553)
T1 sequence (Q13464 6-553, species assumed): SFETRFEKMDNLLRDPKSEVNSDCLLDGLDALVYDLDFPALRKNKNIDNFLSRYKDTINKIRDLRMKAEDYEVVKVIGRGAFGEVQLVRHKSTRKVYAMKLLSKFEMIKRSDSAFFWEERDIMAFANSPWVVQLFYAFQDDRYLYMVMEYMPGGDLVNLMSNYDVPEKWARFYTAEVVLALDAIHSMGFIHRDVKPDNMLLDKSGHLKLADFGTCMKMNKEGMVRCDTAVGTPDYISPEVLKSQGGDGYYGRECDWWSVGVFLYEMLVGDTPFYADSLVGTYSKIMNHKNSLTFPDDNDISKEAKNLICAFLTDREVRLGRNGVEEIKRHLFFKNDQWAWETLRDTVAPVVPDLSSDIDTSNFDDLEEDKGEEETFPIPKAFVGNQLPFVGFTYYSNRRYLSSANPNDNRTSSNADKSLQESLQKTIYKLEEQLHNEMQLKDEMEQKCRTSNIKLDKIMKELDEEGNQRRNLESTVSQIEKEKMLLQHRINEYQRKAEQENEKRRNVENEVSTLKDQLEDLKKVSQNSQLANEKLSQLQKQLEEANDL
Outline: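 ROCK I (AA 6-553) at 45 nM and 30 °C with 45 μM ATP and 200 μM peptide, in 100 mM HEPES pH 7.5, 10 mM MgCl2, 25 mM NaCl, 2 mM DTT, 1.5% DMSO. ADP output read by a PK/LDH coupled system: 2.5 mM PEP, 350 μM NADH, 30 μg/ml PK, 10 μg/ml LDH.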

[4] = biological target: T2, Aurora-C (Homo sapiens, UniProt Q9UQB9); assay: Aurora-C inhibition assay, coupled enzyme system as for Aurora-A; conditions: average Ki if more than one value determined
T2 sequence (Q9UQB9 1-309): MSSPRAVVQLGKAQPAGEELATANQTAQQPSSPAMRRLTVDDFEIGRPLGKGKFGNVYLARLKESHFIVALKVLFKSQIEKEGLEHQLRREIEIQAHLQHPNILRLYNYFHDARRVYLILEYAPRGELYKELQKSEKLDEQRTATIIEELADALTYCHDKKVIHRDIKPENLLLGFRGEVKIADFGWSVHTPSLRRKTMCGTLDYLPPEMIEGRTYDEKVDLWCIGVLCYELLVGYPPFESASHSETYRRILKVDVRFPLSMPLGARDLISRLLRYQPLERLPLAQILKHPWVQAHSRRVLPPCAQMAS
Method: Compounds were screened for their ability to inhibit full length Aurora-A (AA 1-403) activity using a standard coupled enzyme system (Fox et al., Protein Sci. 7, pp. 2249 (1998)). Reactions were carried out in a solution containing 100 mM HEPES (pH 7.5), 10 mM MgCl2, 25 mM NaCl, 300 μM NADH, 1 mM DTT and 3% DMSO. Final substrate concentrations in the assay were 200 μM ATP (Sigma Chemicals, St Louis, Mo.) and 800 μM peptide (LRRASLG, American Peptide, Sunnyvale, Calif.). Reactions were carried out at 30° C. and 35 nM Aurora-A. Final concentrations of the components of the coupled enzyme system were 2.5 mM phosphoenolpyruvate, 200 μM NADH, 60 μg/ml pyruvate kinase and 20 μg/ml lactate dehydrogenase.
An assay stock buffer solution was prepared containing all of the reagents listed above with the exception of ATP and the test compound of interest. The assay stock buffer solution (60 μl) was incubated in a 96 well plate with 2 μl of the test compound of interest at final concentrations spanning 0.002 μM to 30 μM at 30° C. for 10 min. Typically, a 12 point titration was conducted by preparing serial dilutions (from 1 mM compound stocks) with DMSO of the test compounds in daughter plates. The reaction was initiated by the addition of 5 μl of ATP (final concentration 200 μM). Rates of reaction were obtained using a Molecular Devices Spectramax plate reader (Sunnyvale, Calif.) over 10 min at 30° C. The Ki values were determined from the rate data as a function of inhibitor concentration using computerized nonlinear regression (Prism 3.0, Graphpad Software, San Diego, Calif.). Aurora-C activity was screened in a similar manner using Aurora-C protein. Aurora-B activity was screened using a radioactive assay, such as described in Examples 1 and 2, but using Aurora-B protein.

[5] = biological target: T3, full length Aurora-A (AA 1-403) (Homo sapiens, UniProt O14965); assay: Aurora-A inhibition assay, standard coupled enzyme system; conditions: average Ki if more than one value determined
T3 construct: full length Aurora-A (AA 1-403)
T3 sequence (O14965 1-403): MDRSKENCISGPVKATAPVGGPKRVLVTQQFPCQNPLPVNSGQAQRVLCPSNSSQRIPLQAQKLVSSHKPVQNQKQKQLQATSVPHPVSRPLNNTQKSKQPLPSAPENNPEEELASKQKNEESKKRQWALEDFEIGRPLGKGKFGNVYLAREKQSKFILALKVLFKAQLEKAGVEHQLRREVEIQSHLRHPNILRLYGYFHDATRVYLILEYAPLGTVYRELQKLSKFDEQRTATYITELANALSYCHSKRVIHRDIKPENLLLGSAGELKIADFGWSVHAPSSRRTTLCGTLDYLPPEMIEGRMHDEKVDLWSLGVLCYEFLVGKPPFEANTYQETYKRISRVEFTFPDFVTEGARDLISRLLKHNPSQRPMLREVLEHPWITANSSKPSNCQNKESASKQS

[6] = biological target: ROCK (Homo sapiens, UniProt Q13464); assay: ROCK inhibition assay, standard radioactive enzyme assay ("33P")
ROCK, sequence (Q13464 whole entry): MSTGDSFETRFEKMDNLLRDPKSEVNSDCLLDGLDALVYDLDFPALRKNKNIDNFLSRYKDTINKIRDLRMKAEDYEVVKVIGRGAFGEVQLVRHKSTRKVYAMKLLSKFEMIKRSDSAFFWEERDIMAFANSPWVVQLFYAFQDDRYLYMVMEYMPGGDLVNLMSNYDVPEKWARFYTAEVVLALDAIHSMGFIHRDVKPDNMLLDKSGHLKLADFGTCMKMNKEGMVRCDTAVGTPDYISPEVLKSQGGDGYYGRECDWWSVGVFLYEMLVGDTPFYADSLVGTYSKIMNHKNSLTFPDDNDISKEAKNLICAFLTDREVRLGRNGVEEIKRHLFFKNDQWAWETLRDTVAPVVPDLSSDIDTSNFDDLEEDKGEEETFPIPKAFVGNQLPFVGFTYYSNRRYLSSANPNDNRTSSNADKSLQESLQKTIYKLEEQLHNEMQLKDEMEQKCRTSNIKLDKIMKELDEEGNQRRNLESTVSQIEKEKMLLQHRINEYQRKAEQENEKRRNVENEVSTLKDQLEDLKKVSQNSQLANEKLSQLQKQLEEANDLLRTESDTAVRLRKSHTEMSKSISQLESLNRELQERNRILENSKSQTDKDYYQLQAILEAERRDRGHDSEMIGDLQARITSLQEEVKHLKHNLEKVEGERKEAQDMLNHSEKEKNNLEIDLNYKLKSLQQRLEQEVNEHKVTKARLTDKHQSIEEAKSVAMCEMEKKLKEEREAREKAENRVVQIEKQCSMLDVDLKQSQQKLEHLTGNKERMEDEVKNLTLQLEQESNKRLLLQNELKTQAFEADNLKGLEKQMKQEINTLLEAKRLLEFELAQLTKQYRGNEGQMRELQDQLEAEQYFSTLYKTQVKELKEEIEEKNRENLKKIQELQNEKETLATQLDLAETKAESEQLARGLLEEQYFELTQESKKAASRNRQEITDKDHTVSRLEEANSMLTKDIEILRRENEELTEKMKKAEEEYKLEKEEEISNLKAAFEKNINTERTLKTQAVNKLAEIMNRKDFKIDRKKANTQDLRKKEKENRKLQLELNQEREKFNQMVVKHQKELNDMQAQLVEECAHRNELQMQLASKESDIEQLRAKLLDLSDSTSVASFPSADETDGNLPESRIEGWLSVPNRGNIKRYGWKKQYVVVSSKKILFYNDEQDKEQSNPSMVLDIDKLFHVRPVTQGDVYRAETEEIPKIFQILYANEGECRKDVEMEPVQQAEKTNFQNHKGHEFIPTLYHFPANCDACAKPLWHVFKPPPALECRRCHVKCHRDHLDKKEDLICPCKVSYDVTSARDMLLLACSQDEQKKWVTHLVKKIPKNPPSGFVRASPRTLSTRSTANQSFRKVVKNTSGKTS
Method: Some compounds were screened for their ability to inhibit ROCK using a standard radioactive enzyme assay. Assays were carried out in a solution containing 100 mM HEPES (pH 7.5), 10 mM MgCl2, 25 mM NaCl, 2 mM DTT, and 1.5% DMSO. Final substrate concentrations in the assay were 13 μM [γ-^33P] ATP (25 mCi ^33P ATP/mmol ATP, Perkin Elmer, Cambridge, Mass./Sigma Chemicals, St Louis, Mo.) and 27 μM Myelin Basic Protein (MBP). Final enzyme concentration in the assay was 5 nM ROCK. Assays were carried out at room temperature. 1.5 μl of DMSO stock containing serial dilutions of the compound of the present invention (concentrations ranging from 10 μM to 2.6 nM) was placed in a 96 well plate. 50 μl of Solution 1 (100 mM HEPES (pH 7.5), 10 mM MgCl2, […]) was added to the plate. The reaction was initiated by addition of 50 μl of Solution 2 (100 mM HEPES (pH 7.5), 10 mM MgCl2, 4 mM DTT, […] and 10 nM ROCK). After 2 hours the reaction was quenched with 50 μL of 30% trichloroacetic acid (TCA, Fisher) containing 9 mM ATP. Transfer of 140 μL of the quenched reaction to a glass fiber filter plate (Corning, Cat. No. 3511) was followed by washing 3 times with 5% TCA. 50 μL of Optima Gold scintillation fluid (Perkin Elmer) was added and the plates were counted on a Top Count (Perkin Elmer). After removing mean background values for all of the data points the data was fit using Prism software to obtain a Ki(app).

Aurora-B, sequence (Q96GD4 whole entry): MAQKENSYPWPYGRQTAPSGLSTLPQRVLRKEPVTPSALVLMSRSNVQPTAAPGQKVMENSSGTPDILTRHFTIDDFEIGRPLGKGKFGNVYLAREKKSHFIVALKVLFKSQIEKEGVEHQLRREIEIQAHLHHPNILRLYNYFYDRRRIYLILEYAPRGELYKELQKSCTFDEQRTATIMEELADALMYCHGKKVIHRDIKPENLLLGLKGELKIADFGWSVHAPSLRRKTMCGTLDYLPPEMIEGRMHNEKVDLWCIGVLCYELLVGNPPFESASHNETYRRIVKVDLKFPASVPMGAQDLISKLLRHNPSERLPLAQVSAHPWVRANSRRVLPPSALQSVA

| Compound | Ki [1] [nM] | Ki [2] [nM] | Ki [3] [nM] | Ki [4] [nM] | Ki [5] [nM] | Ki ([6]; Ki(app)) [nM] | Ki [6] [nM] |
| --- | --- | --- | --- | --- | --- | --- | --- |
| CCc1cnc(-c2c[nH]c3ncc(Cl)cc23)nc1N[C@@H](C)c1ccc(F)cc1 [Compound 386] | < 500 | < 500 | 500 to 5000 | < 500 | < 500 | – | – |
| COc1cc(-c2c[nH]c3ncccc23)ccc1C(N)=O [Compound 31, 2-Methoxy-4-(1H-pyrrolo[2,3-b]pyridin-3-yl)-benzamide] | – | – | – | – | < 500 | < 500 | – |
| C[C@H](Nc1nc(-c2c[nH]c3ncc(Cl)cc23)ncc1C(F)(F)F)c1ccc(F)cc1 [Compound 371] | < 500 | < 500 | 500 to 5000 | < 500 | < 500 | – | – |
| COc1ccc(OC)c(-c2c[nH]c3ncc(-c4ccccc4)cc23)c1 [Compound 216] | – | – | – | – | < 500 | – | 500 to 5000 |
| C[C@H](Nc1nc(-c2c[nH]c3ncc(Cl)cc23)ncc1F)C(=O)NCCc1ccc(S(N)(=O)=O)cc1 [Compound 446] | < 500 | 500 to 5000 | 500 to 5000 | < 500 | < 500 | – | – |
| CC(=O)NCCNC(=O)[C@H](C)Nc1nc(-c2c[nH]c3ncc(Cl)cc23)ncc1F [Compound 444] | < 500 | 500 to 5000 | 500 to 5000 | < 500 | < 500 | – | – |
| Fc1cnc(-c2c[nH]c3ncc(Cl)cc23)nc1NC1CCOCC1 [Compound 348] | < 500 | – | 500 to 5000 | < 500 | < 500 | – | – |
| CCSCCNC(=O)[C@H](C)Nc1nc(-c2c[nH]c3ncc(Cl)cc23)ncc1F [Compound 447] | 500 to 5000 | – | 500 to 5000 | 500 to 5000 | < 500 | – | – |
| Fc1cnc(-c2c[nH]c3ncc(Cl)cc23)nc1NCc1ccccn1 [Compound 316] | < 500 | – | 500 to 5000 | < 500 | < 500 | – | – |
| CNC(=O)[C@@H](Nc1nc(-c2c[nH]c3ncc(Cl)cc23)ncc1F)C(C)C [Compound 362] | < 500 | – | 500 to 5000 | < 500 | < 500 | – | – |
| CCOc1cccc(-c2c[nH]c3ncc(-c4ccccc4)cc23)c1 [Compound 215] | – | – | – | – | 500 to 5000 | – | 500 to 5000 |
| COc1cccc(-c2c[nH]c3ncc(-c4ccccc4)cc23)c1 [Compound 214] | – | – | – | – | 500 to 5000 | – | 500 to 5000 |
| CNCCNC(=O)[C@H](C)Nc1nc(-c2c[nH]c3ncc(Cl)cc23)ncc1F [Compound 452] | < 500 | – | 500 to 5000 | < 500 | < 500 | – | – |
| C[C@H](Nc1nc(-c2c[nH]c3ncc(Cl)cc23)ncc1F)C(=O)NCCNS(C)(=O)=O [Compound 368] | < 500 | – | 500 to 5000 | < 500 | < 500 | – | – |
| C[C@H](Nc1nc(-c2c[nH]c3ncc(Cl)cc23)ncc1F)C1CCCCC1 [Compound 355] | < 500 | – | 500 to 5000 | < 500 | < 500 | – | – |
| Fc1cnc(-c2c[nH]c3ncc(Cl)cc23)nc1NCc1cccnc1 [Compound 317] | < 500 | – | 500 to 5000 | < 500 | < 500 | – | – |
| Clc1ccc(CNc2ccnc(-c3c[nH]c4ncc(Cl)cc34)n2)cc1 [Compound 237] | < 500 | – | 500 to 5000 | < 500 | < 500 | – | – |
| Fc1cnc(-c2c[nH]c3ncc(Cl)cc23)nc1NCC1CCCNC1 (centres unmarked) [Compound 326] | < 500 | – | < 500 | < 500 | < 500 | – | – |
| C[C@H](Nc1nc(-c2c[nH]c3ncc(Cl)cc23)ncc1F)c1cccc(N)c1 [Compound 333] | < 500 | – | 500 to 5000 | < 500 | < 500 | – | – |
| CC(C)S(=O)(=O)NCCNC(=O)[C@H](C)Nc1nc(-c2c[nH]c3ncc(Cl)cc23)ncc1F [Compound 454] | 500 to 5000 | – | 500 to 5000 | 500 to 5000 | < 500 | – | – |
| C[C@H](Nc1nc(-c2c[nH]c3ncc(Cl)cc23)ncc1F)C(=O)NCCN [Compound 431] | < 500 | – | 500 to 5000 | < 500 | < 500 | – | – |
| c1ccc(-c2cnc3[nH]cc(-c4ccccc4)c3c2)cc1 [Compound 213] | – | – | – | – | < 500 | – | 500 to 5000 |
| Fc1cnc(-c2c[nH]c3ncc(Cl)cc23)nc1NCC1CCCCC1 [Compound 349] | < 500 | – | 500 to 5000 | < 500 | < 500 | – | – |
| C[C@H](Nc1nc(-c2c[nH]c3ncc(Cl)cc23)ncc1F)C(=O)NCCn1cccc1 [Compound 443] | < 500 | < 500 | 500 to 5000 | < 500 | < 500 | – | – |
| Brc1cnc2[nH]c(-c3ccccc3)c(-c3ccccc3)c2c1 [Compound 211] | – | – | – | – | < 500 | – | 500 to 5000 |
| C[C@H](Nc1nc(-c2c[nH]c3ncc(Cl)cc23)ncc1C(=O)O)c1ccc(F)cc1 [Compound 370] | < 500 | – | 500 to 5000 | < 500 | < 500 | – | – |
| Cc1cc(N[C@@H](C)C(=O)NCCNS(C)(=O)=O)nc(-c2c[nH]c3ncc(Cl)cc23)n1 [Compound 450] | < 500 | 500 to 5000 | 500 to 5000 | < 500 | < 500 | – | – |
| Fc1cnc(-c2c[nH]c3ncc(Cl)cc23)nc1NCC1CCCN1 (centres unmarked) [Compound 328] | < 500 | – | 500 to 5000 | < 500 | < 500 | – | – |
| C[C@H](Nc1nc(-c2c[nH]c3ncc(Cl)cc23)ncc1F)c1cccc(O[C@H]2CCNC2)c1 [Compound 321] | 500 to 5000 | – | 500 to 5000 | < 500 | < 500 | – | – |
